Results: patent US20080234286A1 (CHEMAGIS Ltd., priority 2007, published 2008)
Structures can show the parent of a compound that is named as a salt.

Assays:
Assay type in all cases: physicochemical
[1] = Water content by Karl Fischer titration
Protocol: The water content measurements were carried out using a Karl Fischer Titrator (Mettler Toledo Model DL-53), according to standard procedures.

[2] = Physical nature / hygroscopicity of the obtained solid (observation); conditions: as obtained after drying
[3] = Bulk and tapped density (Vankel tapped density tester)
Protocol: Bulk and tapped densities were measured using Varian's Vankel tapped density tester model 50-2300.

[4] = Retention of amorphous form after compressing at high pressure, checked by X-ray diffractometer; conditions: about 7.5 tons/cm^2 for 15 minutes
Protocol: X-ray diffraction data were acquired using a PHILIPS X-ray diffractometer model PW1050-70. System description: Kα1=1.54178 Å, voltage 40 kV, current 28 mA, diversion slit=1°, receiving slit=0.2 mm, scattering slit=1° with a Graphite monochromator. Measurements of 2θ values typically are accurate to within ±0.2 degrees. Experiment parameters: pattern measured between 2θ=3° and 2θ=30° with 0.05° increments; count time was 0.5 second per increment. […]
The four samples, marked as 1-4, were checked by X-ray diffractometer after compressing and the results are detailed in Table 5.

[5] = Storage stability of packed compressed tablets (amorphous form, purity by HPLC)
Source text: The term “remains stable”, as defined herein, refers to lack of formation of impurities, while being stored as described herein (see Example 11).
The compressed tablets were packed in a packing comprising internal sealed polyethylene bag, containing the tablets, which was inserted into a middle opaque (e.g., black) polyethylene bag, which was then sealed, wherein the packaging was sealed effectively to prevent penetration of humidity and/or oxygen. The polyethylene bag was packed and sealed in a laminated aluminum bag containing silica.
The samples were packed in the above-mentioned packaging and stored at room temperate and at 40° C. Samples were withdrawn periodically after 5, 8, 13 and 30 days and the purity of the withdrawn material was checked by HPLC.

Compound	% water in the product [1] [%]	further results
Cc1ccc(NC(=O)c2ccc(CN3CCN(C)CC3)cc2)cc1Nc1nccc(-c2cccnc2)n1 [Example 1, imatinib mesylate]	4.1	physical nature of the obtained solid (hygroscopicity, flow) [2]: non-hygroscopic and free-flowing
Cc1ccc(NC(=O)c2ccc(CN3CCN(C)CC3)cc2)cc1Nc1nccc(-c2cccnc2)n1 [Example 2, imatinib mesylate]		bulk density [3]: 0.29 g/mL; tapped density [3]: 0.39 g/mL
Cc1ccc(NC(=O)c2ccc(CN3CCN(C)CC3)cc2)cc1Nc1nccc(-c2cccnc2)n1 [Example 3, imatinib mesylate]	4.1	
Cc1ccc(NC(=O)c2ccc(CN3CCN(C)CC3)cc2)cc1Nc1nccc(-c2cccnc2)n1 [Example 4, imatinib mesylate]	3.7	
Cc1ccc(NC(=O)c2ccc(CN3CCN(C)CC3)cc2)cc1Nc1nccc(-c2cccnc2)n1 [Example 5, imatinib mesylate]	4.8	
Cc1ccc(NC(=O)c2ccc(CN3CCN(C)CC3)cc2)cc1Nc1nccc(-c2cccnc2)n1 [Example 6, imatinib mesylate]	3.8	
Cc1ccc(NC(=O)c2ccc(CN3CCN(C)CC3)cc2)cc1Nc1nccc(-c2cccnc2)n1 [Example 7, imatinib mesylate]	4.3	
Cc1ccc(NC(=O)c2ccc(CN3CCN(C)CC3)cc2)cc1Nc1nccc(-c2cccnc2)n1 [Example 8, imatinib mesylate]	3.8	
Cc1ccc(NC(=O)c2ccc(CN3CCN(C)CC3)cc2)cc1Nc1nccc(-c2cccnc2)n1 [amorphous imatinib mesylate, imatinib mesylate]		solid form after being compressed [4]: remains in amorphous form; stability and amorphous form on storage ([5]; stored at 25° C. for at least a month): remains stable and maintains its amorphous form; stability and amorphous form on storage ([5]; stored at 40° C. for at least a month): remains stable and maintains its amorphous form

Further lines, with some results ahead:

% water in the product [1] [%]	Compound	further results
4.9	Cc1ccc(NC(=O)c2ccc(CN3CCN(C)CC3)cc2)cc1Nc1nccc(-c2cccnc2)n1 [Example 9, imatinib mesylate]	
3.2	Cc1ccc(NC(=O)c2ccc(CN3CCN(C)CC3)cc2)cc1Nc1nccc(-c2cccnc2)n1 [Example 10, imatinib mesylate]	
2.2	Cc1ccc(NC(=O)c2ccc(CN3CCN(C)CC3)cc2)cc1Nc1nccc(-c2cccnc2)n1 [Reference Example 1, imatinib mesylate, reference compound]	physical nature of the obtained solid (hygroscopicity, flow) [2]: glassy deliquescent material
1.7	Cc1ccc(NC(=O)c2ccc(CN3CCN(C)CC3)cc2)cc1Nc1nccc(-c2cccnc2)n1 [Reference Example 2, imatinib mesylate, reference compound]	physical nature of the obtained solid (hygroscopicity, flow) [2]: very electrostatic and tended to agglomerate
